SMILES strings stand for the structures. pKd: −log10 of the molar value. Non-standard residues stand in square brackets, D forms with d. Residues, ends and D or L forms follow the SMILES beside them. pY = N[C@@H](Cc1ccc(OP(=O)(O)O)cc1)C(=O)O

We go through three compounds from BindingDB's records for doi:10.1074/jbc.M114.556480 (Yale University, 2014).

This experiment addresses T1, Tyrosine-protein kinase ABL1 [131-238] (Human, UniProt P00519).
T1 construct: 131-238
T1 sequence (P00519 whole entry): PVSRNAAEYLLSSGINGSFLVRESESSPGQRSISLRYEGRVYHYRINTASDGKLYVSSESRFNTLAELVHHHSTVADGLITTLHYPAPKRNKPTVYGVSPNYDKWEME
Briefly: Fluorescence Polarization Assay. The settings on record: pH 7.25. On the procedure: SH2 domains were dialyzed into binding buffer (50 mM Hepes, pH 7.25, 150 mM NaCl, 0.01% Nonidet P-40, 5% glycerol) and a 30-μl volume serially diluted into pre-chilled 384-well low flange black flat bottom non-binding microplates (Corning) while on ice. 5 μl of 35 nM fluorescent peptide dissolved in binding buffer was added to each well (final concentration 5 nM), mixed 5 times by pipetting, and plates were incubated at 4 °C for 40 min. Fluorescence polarization experiments were performed with an Analyst AD (Molecular Devices, Sunnyvale, CA) spectrofluorimeter. Each well was excited using 485 nm light and emission was read at 530 nm. Fluorescence polarization was measured 1 mm from the bottom of each well with an integration time of 560 ms. All experiments were conducted in triplicate.
Turning to `C[C@@H](O)[C@H](NC(=O)[C@H](CC(=O)O)NC(=O)[C@H](CC(=O)O)NC(=O)[C@@H](N)CCC(=O)O)C(=O)N[C@@H](Cc1ccc(OP(=O)(O)O)cc1)C(=O)N[C@@H](CC(=O)O)C(=O)NCC(=O)N[C@@H](Cc1ccc(O)cc1)C(=O)N[C@@H](CCC(=O)O)C(=O)O` [EDDTpYDGYE] (H-EDDT[pY]DGYE-OH), the negative logarithm of the Kd (pKd) (as a rule, the Kd on a negative log10 scale, so that one unit is a factor of ten) is < 4.21.

Regarding `CC(C)[C@H](NC(=O)[C@@H]1CCCN1C(=O)[C@H](CCC(=O)O)NC(=O)[C@@H](N)CO)C(=O)N[C@@H](Cc1ccc(OP(=O)(O)O)cc1)C(=O)N[C@@H](CCC(=O)O)C(=O)N[C@H](C(=O)N[C@H](C(=O)N[C@@H](CCC(=O)O)C(=O)O)[C@@H](C)O)[C@@H](C)O` [SEPVpYETTE] (H-SEPV[pY]ETTE-OH), the negative logarithm of the Kd (pKd) was 5.49.

For `CC[C@H](C)[C@H](NC(=O)[C@@H]1CCCN1C(=O)[C@H](CO)NC(=O)[C@@H](N)CO)C(=O)N[C@@H](Cc1ccc(OP(=O)(O)O)cc1)C(=O)N[C@@H](CCC(=O)O)C(=O)N[C@@H](CC(=O)O)C(=O)N[C@@H](C)C(=O)N[C@@H](C)C(=O)O` [SSPIpYEDAA] (H-SSPI[pY]EDAA-OH), the negative logarithm of the Kd (pKd) is 5.48.
